Our source for the IC50 values is patent publication US8410150B2, “Inhibitors of carnitine palmitoyltransferase and treating cancer” (University Health Network, priority 2007, dated 2013).

Structures can show the parent of a compound that is named as a salt.

The target in this assay is T1, human CPT1A (Homo sapiens, UniProt P50416).
T1 construct: made in house; host or cells: Saccharomyces cerevisiae (pESC-trp) or cultured mammalian cells (pCDNA3.1); mitochondrial extract
T1 sequence (P50416 1-773): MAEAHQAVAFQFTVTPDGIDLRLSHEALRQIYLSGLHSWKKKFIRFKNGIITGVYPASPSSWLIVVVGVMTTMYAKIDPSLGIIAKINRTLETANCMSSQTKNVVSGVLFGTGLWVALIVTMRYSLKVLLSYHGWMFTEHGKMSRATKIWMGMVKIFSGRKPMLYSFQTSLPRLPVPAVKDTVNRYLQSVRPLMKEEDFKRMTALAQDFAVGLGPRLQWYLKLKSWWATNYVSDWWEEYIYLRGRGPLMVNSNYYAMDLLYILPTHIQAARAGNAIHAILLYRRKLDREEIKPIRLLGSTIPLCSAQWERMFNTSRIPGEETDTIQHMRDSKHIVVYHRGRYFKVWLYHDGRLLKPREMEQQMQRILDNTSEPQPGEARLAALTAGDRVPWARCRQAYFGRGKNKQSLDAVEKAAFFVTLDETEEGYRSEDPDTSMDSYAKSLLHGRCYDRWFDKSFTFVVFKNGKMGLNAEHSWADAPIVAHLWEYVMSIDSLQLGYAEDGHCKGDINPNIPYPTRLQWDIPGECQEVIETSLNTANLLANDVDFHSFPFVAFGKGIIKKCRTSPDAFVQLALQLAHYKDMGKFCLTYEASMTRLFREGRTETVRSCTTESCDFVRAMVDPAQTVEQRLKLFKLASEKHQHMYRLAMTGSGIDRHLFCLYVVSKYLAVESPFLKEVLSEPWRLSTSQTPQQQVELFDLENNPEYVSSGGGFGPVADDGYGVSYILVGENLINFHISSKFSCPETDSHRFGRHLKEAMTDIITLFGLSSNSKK
Kind of assay: Human CPT1A LC/MS assay. The format is biochemical. The following applies: human CPT1A LC/MS assay, dose response format. The text has this:
Nucleotide sequences encoding human CPT1 enzymes were individually cloned into the yeast expression vector pESC-trp at the Cla1 (5′ terminus) and Pac1 (3′ terminus) restriction sites by PCR amplification of the open reading frame using oligonucleotide primers designed to encode the wild-type CPT1 protein sequence. Standard molecular biology techniques were used to transform and express the CPT1 proteins in the yeast Saccharomyces cerevisiae. The yeast cells were lysed by enzymatic degradation of the cell wall by Zymolase, and the mitochondria were isolated by standard biochemical techniques. The integrity of the isolated mitochondria was monitored by determining the activity of succinate dehydrogenase in the mitochondrial preparations. The mitochondrial extracts were stored at −80° C. in buffer containing 10 mM HEPES pH 7.4 and 250 mM sucrose.
Human CPT1 (A, B, C) genes were additionally cloned into the pCDNA3.1 vector individually for expression in cultured mammalian cells. Cells expressing the exogenous CPT1A were identified and grown under standard conditions. Mammalian cells were harvested, and mitochondrial extracts prepared using standard biochemical methods. The mitochondrial extracts were stored at −80° C. in buffer containing 10 mM HEPES pH 7.4 and 250 mM sucrose.
Assays were performed in 96-well plate format. Each 100 μL reaction contained 40 mM KCl, 50 mM TrisHCl pH 7.5, and 250 mM mannitol (Assay Buffer), and 1.6 μg protein of an extract, 20 μM palmitoyl-CoA, 50 μM L-carnitine, and 10 ug/mL BSA. Reactions were incubated at room temperature and stopped after 10 minutes by extraction with 200 μL of water saturated n-butanol containing myristoyl carnitine (500 nM) as an internal standard. The samples were thoroughly mixed, and the phases separated by centrifugation. Samples were prepared for analysis with a 10 fold dilution of the n-butanol phase containing the reaction product palmitoyl carnitine into a 50:50 (acetonitrile:water) solvent for analysis. […] of prepared sample was separated on a Phenomenex Jupiter 5μ C4 reverse-phase column using an Agilent 1100 HPLC with a gradient from 50% acetonitrile (0.5% acetic acid) to 100% acetonitrile and quantified by detection with a Bruker Esquire 3000plus mass spectrometer. The abundance of the palmitoyl carnitine product was determined relative to the internal standard and the actual quantity of palmitoyl carnitine can be determined from a standard curve prepared using the n-butanol solution containing the internal standard.
Compounds were evaluated in two formats, a screening format, and a dose response format. The screening format was performed by adding 25 μL compound in 20% DMSO and Assay Buffer to 25 μL of extract containing […] and Assay Buffer, followed by a 10 minute incubation at room temperature. 50 μL of 40 μM palmitoyl-CoA in Assay Buffer was added to the reaction mixture, mixed and incubated for 10 minutes at room temperature. A negative control for activity was also performed where the carnitine was omitted from the reaction. A positive control for activity was also performed by omitting compound from the solution containing 20% DMSO and Assay Buffer. The reaction mixture was extracted and analyzed as described above. The inhibition by compound was determined by comparing the control relative activity to the relative activity observed in wells containing the compound. Relative activity was determined by subtracting the relative intensity (area palmitoyl carnitine/area myristoyl carnitine) observed in the negative control from the relative intensity observed in the experimental well, and dividing by the relative activity observed in the positive control.
[formula] Compound characterization by dose response format was performed using the above described assay conditions and a 16 point compound titration in 2 fold compound dilution steps. The DMSO concentration was kept constant at 20% (v/v) for all compound concentrations.
A word on the IC50: it is the concentration that gives 50% inhibition. Low readings indicate higher potency, high ones lower potency. Turning to `CCCCCCC#Cc1ccc(NS(=O)(=O)N[C@H](CC(=O)[O-])C[N+](C)(C)C)cc1` [Example S106, (R)-3-(N-(4-(oct-1-ynyl)phenyl)sulfamoylamino)-4-(trimethylammonio) butanoate], the IC50 was in the range of 1 to 10 µM.

Turning to `C[N+](C)(C)C[C@@H](CC(=O)O)NC(=O)c1ccc(CCc2ccsc2)o1` [Example S124, (R)-3-carboxy-N,N,N-trimethyl-2-(5-(2-(thiophen-3-yl)ethyl)furan-2-carboxamido)propan-1-aminium 2,2,2-trifluoroacetate], the IC50 is at most 1 µM. Compound `CCCCCCCCCc1ccc(NS(=O)(=O)N[C@H](CC(=O)[O-])C[N+](C)(C)C)cc1` [Example S105, (R)-3-(N-(4-nonylphenyl)sulfamoylamino)-4-(trimethylammonio)-butanoate] showed an IC50 of at most 1 µM. The value for `Cc1cccc(OCc2ccc(C(=O)N[C@H](CC(=O)[O-])C[N+](C)(C)C)o2)c1` [Example S70, (R)-3-(5-(m-tolyloxymethyl)furan-2-carboxamido)-4-(trimethylammonio)-butanoate] was 1 to 10 µM.

Compound `C[N+](C)(C)C[C@@H](CC(=O)O)NC(=O)c1ccc(C#Cc2ccccc2)s1` [Example S43, (R)-3-(5-(phenylethynyl)thiophene-2-carboxamido)-4-(trimethylammonio)-butanoate] gave an IC50 of at most 1 µM.

`C[N+](C)(C)C[C@@H](CC(=O)O)NC(=O)c1cccc(-c2cc[nH]n2)c1` [Example S57, (R)-3-(3-(1H-pyrazol-3-yl)benzamido)-4-(trimethylammonio)butanoate trifluoroacetate] came in with an IC50 of over 2500 µM. Take `Cc1cccc(C#Cc2ccc(S(=O)(=O)N[C@H](CC(=O)O)C[N+](C)(C)C)s2)c1` [Example S76, (R)-3-carboxy-N,N,N-trimethyl-2-(5-(m-tolylethynyl)thiophene-2-sulfonamido)propan-1-aminium 2,2,2-trifluoroacetate]: the half-maximal inhibitory concentration (IC50) fell in the range of 100 to 1000 µM. In turn, `CC(=O)Nc1ccc(C(=O)N[C@H](CC(=O)[O-])C[N+](C)(C)C)cc1` [Example S53, (R)-3-(4-acetamidobenzamido)-4-(trimethylammonio)butanoate] had a half-maximal inhibitory concentration (IC50) of over 2500 µM. In the case of `CCCCCCc1ccc(C#Cc2ccc(C(=O)N[C@H](CC(=O)O)C[N+](C)(C)C)o2)s1` [Example S118, (R)-3-carboxy-2-(5-((5-hexylthiophen-2-yl)ethynyl)furan-2-carboxamido)-N,N,N-trimethylpropan-1-aminium 2,2,2-trifluoroacetate] it was 1 to 10 µM; in that of `C[N+](C)(C)C[C@@H](CC(=O)[O-])NC(=O)c1ccc(CCc2ccccc2)cc1` [Example S64, (R)-3-(4-phenethylbenzamido)-4-(trimethylammonio)butanoate], 10 to 100 µM. Regarding `CN(C(=O)N[C@H](CC(=O)[O-])C[N+](C)(C)C)c1ccc(Oc2ccccc2)cc1` [Example S34, (R)-3-(3-methyl-3-(4-phenoxyphenyl)ureido)-4-(trimethyl-ammonio)butanoate], the IC50 lay in the range of 100 to 1000 µM. In the case of `C[N+](C)(C)C[C@@H](CC(=O)O)NS(=O)(=O)c1ccc(Oc2ccccc2)nc1` [Example S19, (R)-3-carboxy-N,N,N-trimethyl-2-(6-phenoxypyridine-3-sulfonamido)propan-1-aminium 2,2,2-trifluoroacetate] it was 100 to 1000 µM; in that of `C[N+](C)(C)C[C@@H](CC(=O)O)NC(=O)c1ccc(Br)s1` [Example S95, (R)-2-(5-bromothiophene-2-carboxamido)-3-carboxy-N,N,N-trimethyl-propan-1-aminium trifluoroacetate], 10 to 100 µM. The value for `C[N+](C)(C)C[C@@H](CC(=O)[O-])NC(=O)Nc1cc(C(F)(F)F)ccc1Cl` [Example S85, (R)-3-(3-(2-chloro-5-(trifluoromethyl)phenyl)ureido)-4-(trimethyl-ammonio)butanoate] was 1000 to 2500 µM; that for `CCCCCc1ccc(CCc2ccc(C(=O)N[C@H](CC(=O)O)C[N+](C)(C)C)o2)cc1` [Example S123, (R)-3-carboxy-N,N,N-trimethyl-2-(5-(4-pentylphenethyl)furan-2-carboxamido)propan-1-aminium 2,2,2-trifluoroacetate] was at most 1 µM; that for `CN(C)C[C@@H](CC(=O)O)NC(=O)N(C)c1ccc(Oc2ccccc2)cc1` [Example S33, (R)-4-(dimethylammonio)-3-(3-methyl-3-(4-phenoxyphenyl)-ureido)butanoate] was over 2500 µM. The value for `CCCCCc1ccc(CCc2ccc(S(=O)(=O)N[C@H](CC(=O)O)C[N+](C)(C)C)s2)cc1` [Example S83, (R)-3-carboxy-N,N,N-trimethyl-2-(5-(4-pentylphenethyl)thiophene-2-sulfonamido)propan-1-aminium 2,2,2-trifluoroacetate] was 1 to 10 µM; that for `C[N+](C)(C)C[C@@H](CC(=O)O)NC(=O)c1ccc(CCc2ccccc2)o1` [Example S42, (R)-3-(5-phenethylfuran-2-carboxamido)-4-(trimethylammonio)-butanoate] was at most 1 µM. `C[N+](C)(C)C[C@@H](CC(=O)[O-])NC(=O)Nc1ccccc1Oc1ccccc1` [Example S100, (R)-3-carboxy-N,N,N-trimethyl-2-(3-(2-phenoxyphenyl)ureido)propan-1-aminium]: the IC50 was over 2500 µM. In the case of `C[N+](C)(C)C[C@@H](CC(=O)O)NC(=O)c1ccc(CS(=O)(=O)Cc2ccccc2)o1` [Example S61, (R)-3-(5-(benzylsulfonylmethyl)furan-2-carboxamido)-4-(trimethyl-ammonio)butanoate 2,2,2-trifluoroacetate] it was 100 to 1000 µM; in that of `C[N+](C)(C)C[C@@H](CC(=O)O)NC(=O)c1ccc(C#Cc2ccsc2)s1` [Example S97, (R)-3-carboxy-N,N,N-trimethyl-2-(5-(thiophen-3-ylethynyl)thiophene-2-carboxamido)propan-1-aminium 2,2,2-trifluoroacetate], at most 1 µM; in that of `C[N+](C)(C)C[C@@H](CC(=O)[O-])NC(=O)Nc1cccc(-n2cccc2)c1` [Example S84, (R)-3-(3-(3-(1H-pyrrol-1-yl)phenyl)ureido)-4-(trimethylammonio)butanoate], 100 to 1000 µM. On to `CCCCCc1ccc(CCc2ccc(C(=O)N[C@H](CC(=O)O)C[N+](C)(C)C)s2)cc1` [Example S102, (R)-3-carboxy-N,N,N-trimethyl-2-(5-(4-pentylphenethyl)thiophene-2-carboxamido)propan-1-aminium 2,2,2-trifluoroacetate], for which the IC50 was at most 1 µM.
